Values after ≈ are worked out from the molar mass of the structure shown. Where two headings read alike, the source gives them in different places.
Tests used:
primary hREC = assay: Toxicity to primary human renal epithelial cells; format: cell-based
A. fumigatus 1163 = assay: Minimum Inhibition Concentration (MIC), antifungal activity; format: cell-based
[1] = Cmax after IV administration; format: in vivo, rats; conditions: C2′epiAmB at 17.5 mg/kg vs AmB at 1 mg/kg
C. albicans [2] = assay: Minimum Inhibition Concentration (MIC), antifungal activity; format: cell-based
[3] = system: 40 Aspergillus clinical isolates, including azole-resistant A. fumigatus, A. flavus, and A. terreus; assay: Antifungal testing, extended panel of 40 Aspergillus clinical isolates (Fungus Testing Laboratory, UT-San Antonio); format: cell-based
Text: (§1) In vitro antifungal activity of C2′epiAmB was compared with that of AmB against an extensive series of Candida and Aspergillus clinical isolates (FIG. 8A) at Evotec (Oxfordshire, UK). […] C2′epiAmB was also sent to the US national Fungus Testing Laboratory at UT-San Antonio for antifungal testing against an extended panel of especially challenging 40 Aspergillus clinical isolates, including azole-resistant A. fumigatus, A. flavus, and A. terreus (FIG. 8B). […] Recently, Steinbach and Burke directly compared the activity of AmB, AmBisome*, caspofungin, voriconazole, and C2′epiAmB against an even broader panel of clinically relevant invasive molds (FIG. 8C).

C. krusei = assay: Minimum Inhibition Concentration (MIC), antifungal activity; format: cell-based
A. fumigatus 91 = assay: as above; format: cell-based
human red blood cells = assay: Toxicity to human red blood cells; format: cell-based
[4] = system: Candida and Aspergillus clinical isolates; assay: In vitro antifungal activity, clinical isolates (Evotec); format: cell-based; conditions: many Candida and several Aspergillus strains
Text: as §1

A. fumigatus = assay: In vitro antifungal activity, A. fumigatus strains (Evotec); format: cell-based
Text: as §1

[5] = system: clinically relevant invasive molds; assay: Antifungal activity, broader panel of clinically relevant invasive molds; format: cell-based; conditions: many strains, including a pan-azole resistant strain (F14196)
Text: as §1

C. albicans [6] = assay: Murine model of invasive candidiasis; format: in vivo, Neutropenic ICR/Swiss mice; conditions: single IP injection
Text: Andes, D. et al., Antimicrobial agents and chemotherapy 2001, 45 (3), 922-6. In fact, the PD parameter that best correlates with outcome is Cmax−/MIC. The same was subsequently observed in a pulmonary model of invasive aspergillosis. Wiederhold, N. P. et al., Antimicrobial agents and chemotherapy 2006, 50 (2), 469-73.

C. glabrata = assay: Minimum Inhibition Concentration (MIC), antifungal activity; format: cell-based
[7] = Isothermal titration calorimetry (ITC) sterol binding; conditions: within the detection limits of ITC
Text: This key discovery opened a path to the rational development of a non-toxic AmB variant. To probe its predicted role in sterol binding, the hydroxyl group was synthetically deleted at the C2′ position on the mycosamine appendage. […] Consistent with the sterol sponge model, this derivative retained good activity against yeast but, most importantly, was nontoxic to human red blood cells and primary (hREC) (FIG. 2B).
A practical 11-step synthesis of C2′epiAmB using a frontier site-selective acylation method was developed (FIG. 4). Wilcock, B. C. et al., Nat Chem 2012, 4 (12), 996-1003; Uno, B. E. A synthesis enabled understanding of Amphotericin B leading to derivatives with improved therapeutic indices. University of Illinois at Urbana-Champaign, 2014. The sterol binding and cell killing activities was then determined.

C. tropicalis = assay: Minimum Inhibition Concentration (MIC), antifungal activity; format: cell-based
C. albicans [8] = assay: MIC with and without pre-complexation with ergosterol; format: cell-based; conditions: sponge pre-complexed with ergosterol
Text: Anderson, T. M. et al., Nat Chem Biol 2014, 10 (5), 400-6. […] Davis, S. A., et al., Nat Chem Biol 2015, 11 (7), 481-7. To test whether C2′epiAmB primarily kills cells via the same sterol sponge mechanism, the C2′epiAmB sponge was similarly pre-complexed with ergosterol (FIG. 9). […] Thus, C2′epiAmB similarly kills yeast primarily via sterol binding, and, by extension, the new compounds targeted in this application are expected to have a similar barrier to fungal resistance that has been observed for the past 50+ years with AmB.

A. fumigatus 1100 = assay: Minimum Inhibition Concentration (MIC), antifungal activity; format: cell-based
[9] = Intravenous toxicity in rats (BUN, ALT/AST, mortality); format: in vivo; conditions: IV, 2, 10, and 17.5 mg/kg (highest dose tested)
Method: >100 mg of C2′epiAmB was prepared, formulated it as the corresponding deoxycholate complex, and evaluated this derivative head-to-head with AmB-deoxycholate for toxicity and efficacy in animal models. […] Alternatively, no elevations in BUN or ALT/AST and no mortality when rats were treated with IV injections of C2′epiAmB at doses of 2, 10, and 17.5 mg/kg (the highest dose that was tested) was observed.

yeast = assay: Activity against yeast / fungal cell killing; format: cell-based

In the case of C[C@@H]1[C@H](O)[C@@H](C)/C=C/C=C/C=C/C=C/C=C/C=C/C=C/[C@H](O[C@@H]2O[C@H](C)[C@@H](O)[C@H](N)[C@H]2O)C[C@@H]2O[C@](O)(C[C@@H](O)C[C@@H](O)[C@H](O)CC[C@@H](O)C[C@@H](O)CC(=O)O[C@H]1C)C[C@H](O)[C@H]2C(=O)O [C2′epiAmB], the “toxicity to primary hREC” value (primary hREC) is reported as “non-toxic”, the MIC (A. fumigatus 1163) is reported as over 64 µM and the “Cmax relative to Cmax for AmB at 1 mg/kg” value [1] is reported as over 16 fold. The MIC (C. albicans [2]) was 4 µM (≈ 3.7 µg/mL), the “average potency relative to AmB (less potent)” value ([3]; average across all 40 strains) was 5.6 fold and the “potency relative to AmB (less potent)” value ([3]; range over 40 Aspergillus clinical isolates) was 2-16 times. The MIC (C. krusei) was 4 µM (≈ 3.7 µg/mL), the MIC (A. fumigatus 91) was over 64 µM and the “toxicity to human red blood cells” value (human red blood cells) was “non-toxic”. The “in vitro antifungal activity” value [4] was “good activity”, the “potency relative to AmB (less potent)” value (A. fumigatus; A. fumigatus strain AF91) was over 32 times and the “potency relative to AmB (less potent)” value (A. fumigatus; A. fumigatus strains AF293, A1163, and ATC204305) was 4 fold. The antifungal potency [5] was “good antifungal potency”, the fungal burden (C. albicans [6]; 16 mg/kg dose) was “outstanding reductions in fungal burden” and the efficacy (C. albicans [6]; deoxycholate complex, 1, 4, 8, or 16 mg/kg) was “dose-dependent efficacy”. For the same compound, the MIC (C. glabrata) was 8 µM (≈ 7.39 µg/mL), the “cholesterol binding by ITC” value [7] was “not (detectably) cholesterol” and the “ergosterol binding by ITC” value [7] was “bind ergosterol”. For the same compound, the MIC (C. tropicalis) was 4 µM (≈ 3.7 µg/mL), the “change in potency upon ergosterol pre-complexation” value (C. albicans [8]) was “same reduction in potency” and the MIC (A. fumigatus 1100) was 32 µM (≈ 29.6 µg/mL). For the same compound, the ALT/AST [9] was “no elevations”, the “Blood Urea Nitrogen (BUN)” value [9] was “no elevations” and the mortality [9] was “no mortality”. For the same compound, the “activity against yeast / fungal cells” value (yeast) was “kill fungal”.

For C[C@@H]1[C@H](O)[C@@H](C)/C=C/C=C/C=C/C=C/C=C/C=C/C=C/[C@H](OC2O[C@H](C)[C@@H](O)[C@H](N)[C@@H]2O)CC2O[C@](O)(CC(O)CC(O)[C@H](O)CCC(O)CC(O)CC(=O)O[C@H]1C)CC(O)[C@H]2C(=O)O (stereo partly shown) [AmB, Amphotericin B], the MIC (A. fumigatus 1163; Aspergillus fumigatus) was 2 µM (≈ 1.85 µg/mL), the MIC (C. albicans [2]; Candida albicans) was 0.5 µM (≈ 0.462 µg/mL) and the MIC (C. krusei; Pichia kudriavzevii) was 2 µM (≈ 1.85 µg/mL). It also gave an MIC (A. fumigatus 91; Aspergillus fumigatus) of 2 µM (≈ 1.85 µg/mL), an MIC (C. glabrata; Nakaseomyces glabratus) of 0.5 µM (≈ 0.462 µg/mL) and an MIC (C. tropicalis; Candida tropicalis) of 2 µM (≈ 1.85 µg/mL). The “change in potency upon ergosterol pre-complexation” value (C. albicans [8]) was “same reduction in potency” and the MIC (A. fumigatus 1100; Aspergillus fumigatus) was 2 µM (≈ 1.85 µg/mL).

COC(=O)[C@H]1[C@@H]2C[C@@H](O[C@@H]3O[C@H](C)[C@@H](O)[C@H](N)[C@H]3O)/C=C/C=C/C=C/C=C/C=C/C=C/C=C/[C@H](C)[C@@H](O)[C@@H](C)[C@H](C)OC(=O)C[C@H](O)C[C@H](O)CC[C@@H](O)[C@H](O)C[C@H](O)C[C@](O)(C[C@@H]1O)O2 [C2'epiAmBME] gave an MIC (A. fumigatus 1163) of 4 µM (≈ 3.75 µg/mL), an MIC (C. albicans [2]) of 1 µM (≈ 0.938 µg/mL) and an MIC (C. krusei) of 2 µM (≈ 1.88 µg/mL). The MIC (A. fumigatus 91) was 4 µM (≈ 3.75 µg/mL), the MIC (C. glabrata) was 4 µM (≈ 3.75 µg/mL) and the MIC (C. tropicalis) was 2 µM (≈ 1.88 µg/mL). For the same compound, the MIC (A. fumigatus 1100) was 4 µM (≈ 3.75 µg/mL).
